Patent publication US20080161315A1, “INDOLES” (priority 2006, published 2008)
Counter-ions that a name gives are not always drawn.

Target: T1, human V1a receptor (Homo sapiens, UniProt P37288)
T1 construct: expressed in transfected cells; host or cells: HEK293 cells, transiently transfected; membrane preparation
Assay: human V1a receptor binding studies (3H-Vasopressin, SPA beads)
Conditions: membranes of HEK293 cells transiently transfected with human V1a receptor, Ki calculated by Cheng-Prussoff equation, read-out: pKi hV1a (converted)
Method: The human V1a receptor was cloned by RT-PCR from total human liver RNA. The coding sequence was subcloned in an expression vector after sequencing to confirm the identity of the amplified sequence. […] Cell membranes were prepared from HEK293 cells transiently transfected with the expression vector and grown in 20 liter fermenters with the following protocol.
50 g of cells were resuspended in 30 ml freshly prepared ice cold Lysis buffer (50 mM HEPES, 1 mM EDTA, 10 mM MgCl2 adjusted to pH=7.4+complete cocktail of protease inhibitor (Roche Diagnostics)); homogenized with Polytron for 1 min; and sonicated on ice for 2×2 minutes at 80% intensity (Vibracell sonicator). The preparation was centrifuged 20 min at 500 g at 4° C., the pellet was discarded and the supernatant centrifuged 1 hour at 43,000 g at 4° C. (19,000 rpm). The pellet was resuspended in 12.5 ml Lysis buffer+12.5 ml Sucrose 20% and homogenized using a Polytron for 1-2 min. The protein concentration was determined by the Bradford method and aliquots were stored at −80° C. until use. For binding studies 60 mg Yttrium silicate SPA beads (Amersham) were mixed with an aliquot of membrane in binding buffer (50 mM Tris, 120 mM NaCl, 5 mM KCl, 2 mM CaCl2, 10 mM MgCl2) for 15 minutes with mixing. 50 ul of bead/membrane mixture was then added to each well of a 96 well plate, followed by 50 ul of 4 nM 3H-Vasopressin (American Radiolabeled Chemicals). For total binding measurement 100 ul of binding buffer were added to the respective wells, for non-specific binding 100 ul of 8.4 mM cold vasopressin and for compound testing 100 ul of a serial dilution of each compound in 2% DMSO. The plate was incubated Ih at room temperature, centrifuged 1 min at 1000 g and counted on a Packard Top-Count. Non-specific binding counts were subtracted from each well, and data was normalized to the maximum specific binding set at 100%. To calculate an IC 50 the curve was fitted using a non-linear regression model (XLfit), and the Ki was calculated using the Cheng-Prussoff equation.

T1 sequence (P37288 whole entry): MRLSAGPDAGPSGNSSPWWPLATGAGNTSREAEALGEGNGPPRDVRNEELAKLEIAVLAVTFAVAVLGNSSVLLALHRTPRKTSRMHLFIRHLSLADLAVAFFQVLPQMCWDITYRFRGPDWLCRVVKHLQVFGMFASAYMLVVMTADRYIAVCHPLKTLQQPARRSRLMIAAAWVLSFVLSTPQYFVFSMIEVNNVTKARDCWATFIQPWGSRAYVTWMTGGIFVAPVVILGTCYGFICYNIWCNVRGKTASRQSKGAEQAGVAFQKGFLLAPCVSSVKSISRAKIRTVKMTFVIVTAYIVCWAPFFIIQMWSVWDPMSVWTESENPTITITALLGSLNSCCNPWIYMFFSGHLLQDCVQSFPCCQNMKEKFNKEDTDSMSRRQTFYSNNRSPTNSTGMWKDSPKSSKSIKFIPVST

| SMILES | Ki |
| --- | --- |
| O=C(c1c[nH]c2cc(Cl)ccc12)N1CCC(N2C(=O)Cc3ccccc32)CC1 [Example 1, 1-[1-(6-Chloro-1H-indole-3-carbonyl)-piperidin-4-yl]-1,3-dihydro-indol-2-one] | 8.91 nM |
| O=C(c1cn(Cc2cc(F)cc(F)c2)c2cc(Cl)ccc12)N1CCC(N2C(=O)Cc3ccccc32)CC1 [Example 2, 1-{1-[6-Chloro-1-(3,5-difluoro-benzyl)-1H-indole-3-carbonyl]-piperidin-4-yl}-1,3-dihydro-indol-2-one] | 2.57 nM |
| CNC(=O)Cn1cc(C(=O)N2CCC(N3C(=O)Cc4ccccc43)CC2)c2ccc(Cl)cc21 [Example 3, 2-{6-Chloro-3-[4-(2-oxo-2,3-dihydro-indol-1-yl)-piperidine-1-carbonyl]-indol-1-yl}-N-methyl-acetamide] | 1.82 nM |
| CN(C)C(=O)Cn1cc(C(=O)N2CCC(N3C(=O)Cc4ccccc43)CC2)c2ccc(Cl)cc21 [Example 4, 2-(6-Chloro-3-{[4-(2-oxo-2,3-dihydro-1H-indol-1-yl)piperidin-1-yl]carbonyl}-1H-indol-1-yl)-N,N-dimethylacetamide] | 1.29 nM |
| CCN(CC)C(=O)Cn1cc(C(=O)N2CCC(N3C(=O)Cc4ccccc43)CC2)c2ccc(Cl)cc21 [Example 5, 2-{6-Chloro-3-[4-(2-oxo-2,3-dihydro-indol-1-yl)-piperidine-1-carbonyl]-indol-1-yl}-N,N-diethyl-acetamide] | 11.7 nM |
| CS(=O)(=O)NCCn1cc(C(=O)N2CCC(N3C(=O)Cc4ccccc43)CC2)c2ccc(Cl)cc21 [Example 6, N-[2-(6-Chloro-3-{[4-(2-oxo-2,3-dihydro-1H-indol-1-yl)piperidin-1-yl]carbonyl}-1H-indol-1-yl)ethyl]methanesulfonamide] | 3.16 nM |
| CC(=O)NCCn1cc(C(=O)N2CCC(N3C(=O)Cc4ccccc43)CC2)c2ccc(Cl)cc21 [Example 7, N-[2-(6-Chloro-3-{[4-(2-oxo-2,3-dihydro-1H-indol-1-yl)piperidin-1-yl]carbonyl}-1H-indol-1-yl)ethyl]acetamide] | 11.7 nM |
| Cc1[nH]c2cc(Cl)ccc2c1C(=O)N1CCC(N2C(=O)Cc3ccccc32)CC1 [Example 8, 1-[1-(6-Chloro-2-methyl-1H-indole-3-carbonyl)-piperidin-4-yl]-1,3-dihydro-indol-2-one] | 12.6 nM |
| CNC(=O)Cn1cc(C(=O)N2CCC(n3c(=O)oc4ccccc43)CC2)c2ccc(Cl)cc21 [Example 10, 2-{6-Chloro-3-[4-(2-oxo-benzooxazol-3-yl)-piperidine-1-carbonyl]-indol-1-yl}-N-methyl-acetamide] | 6.76 nM |
| CN(C)C(=O)Cn1cc(C(=O)N2CCC(n3nnc4ccccc43)CC2)c2ccc(Cl)cc21 [Example 13, 2-(3-{[4-(1H-Benzotriazol-1-yl)piperidin-1-yl]carbonyl}-6-chloro-1H-indol-1-yl)-N,N-dimethylacetamide] | 14.1 nM |
| CNCCn1cc(C(=O)N2CCC(N3C(=O)Cc4ccccc43)CC2)c2ccc(Cl)cc21 [Example 14, 1-{1-[6-Chloro-1-(2-methylamino-ethyl)-1H-indole-3-carbonyl]-piperidin-4-yl}-1,3-dihydro-indol-2-one hydrochloride] | 6.61 nM |
| CN(C)CCn1cc(C(=O)N2CCC(N3C(=O)Cc4ccccc43)CC2)c2ccc(Cl)cc21 [Example 15, 1-{1-[6-Chloro-1-(2-dimethylamino-ethyl)-1H-indole-3-carbonyl]-piperidin-4-yl}-1,3-dihydro-indol-2-one] | 2.09 nM |
| CN(C)CCn1cc(C(=O)N2CCC(n3nnc4ccccc43)CC2)c2ccc(Cl)cc21 [Example 17, (4-Benzotriazol-1-yl-piperidin-1-yl)-[6-chloro-1-(2-dimethylamino-ethyl)-1H-indol-3-yl]-methanone] | 19.5 nM |
| CN1CCn2c(c(C(=O)N3CCC(n4nnc5ccccc54)CC3)c3ccc(Cl)cc32)C1 [Example 18, (4-Benzotriazol-1-yl-piperidin-1-yl)-(7-chloro-2-methyl-1,2,3,4-tetrahydro-pyrazino[1,2-a]indol-10-yl)-methanone] | 20.9 nM |
